Starred links: 1 amine or outer side, 2 acyl side, 3 side chain; linkers in the order of their positions; H or OH if unused. Non-standard residues stand in square brackets, D forms with d. Residues, ends and D or L forms follow the SMILES beside them. Groups on a side chain read outwards from the residue. *: point of attachment. C18 diacid = O=C(O)CCCCCCCCCCCCCCCCC(=O)*; γGlu = O=C(O)[C@H](CCC(=O)[*:2])N[*:1]; αMeF = C[C@](N)(Cc1ccccc1)C(=O)O; AEEA = NCCOCCOCC(=O)O; Aib = CC(C)(N)C(=O)O
Experiments:
[1] = molecular target: human GLP-1 receptor (hGLP-1R) (Homo sapiens, UniProt P43220); assay: cAMP production (HTRF) in CHO cells expressing hGLP-1R; format: cell-based; design: expressed in transfected cells; conditions: for EC50: Table 6, peptides modified at position 17, cAMP in CHO hGLP-1R cells, geometric mean, read-out: hGLP-1R EC50; for % Relative Potency Ratio: Table 6, % GLP-1R activity relative to GLP-1 / % GlucR activity relative to glucagon
Procedure, shortened: (§1)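 Cells were resuspended in assay buffer at batch-optimized density, typically 1×10^5 cells/mL for hGLP-1R and 2×10^5 cells/mL for hGCGR. After 30 min incubation at room temperature with compound, cAMP was measured by two-step HTRF. EC50 values came from 4-parameter logistic fits of % Delta F.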

[2] = molecular target: human glucagon receptor (hGCGR) (Homo sapiens, UniProt P47871); assay: cAMP production (HTRF) in CHO cells expressing hGCGR; format: cell-based; design: expressed in transfected cells; conditions: Table 6, peptides modified at position 17; cAMP in CHO hGCGR cells; geometric mean; read-out: hGluc-R EC50
Procedure, shortened: as §1

human glucagon receptor (hGCGR), sequence (P47871 26-477): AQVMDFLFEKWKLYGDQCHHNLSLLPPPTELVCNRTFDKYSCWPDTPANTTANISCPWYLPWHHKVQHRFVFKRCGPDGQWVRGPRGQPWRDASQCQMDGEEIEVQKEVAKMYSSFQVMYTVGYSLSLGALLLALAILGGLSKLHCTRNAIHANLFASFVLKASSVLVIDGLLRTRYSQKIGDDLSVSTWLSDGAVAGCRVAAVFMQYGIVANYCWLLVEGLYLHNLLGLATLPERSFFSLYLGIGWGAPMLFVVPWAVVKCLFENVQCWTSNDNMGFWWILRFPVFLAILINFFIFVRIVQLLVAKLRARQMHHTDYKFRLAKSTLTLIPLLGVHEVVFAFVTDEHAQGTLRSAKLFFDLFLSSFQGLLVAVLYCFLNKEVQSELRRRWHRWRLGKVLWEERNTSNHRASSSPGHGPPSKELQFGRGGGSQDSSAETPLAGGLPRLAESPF
human GLP-1 receptor (hGLP-1R), sequence (P43220 24-463): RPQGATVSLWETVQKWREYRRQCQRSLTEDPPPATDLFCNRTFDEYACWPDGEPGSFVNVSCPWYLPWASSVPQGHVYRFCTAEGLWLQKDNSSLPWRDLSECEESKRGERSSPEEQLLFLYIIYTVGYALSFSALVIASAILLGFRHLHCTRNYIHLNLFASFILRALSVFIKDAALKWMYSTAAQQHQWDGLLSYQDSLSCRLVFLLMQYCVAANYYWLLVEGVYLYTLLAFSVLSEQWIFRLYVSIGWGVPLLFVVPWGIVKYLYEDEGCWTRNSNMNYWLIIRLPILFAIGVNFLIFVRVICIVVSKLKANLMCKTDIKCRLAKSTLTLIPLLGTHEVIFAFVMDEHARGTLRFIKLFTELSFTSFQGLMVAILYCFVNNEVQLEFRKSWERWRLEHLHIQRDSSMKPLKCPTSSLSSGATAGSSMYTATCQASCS

SMILES	EC50 [1] [nM]	% Relative Potency Ratio [1]	EC50 [2] [nM]
CC(C)C[C@H](NC(=O)[C@H](Cc1c[nH]c2ccccc12)NC(=O)[C@H](CCC(N)=O)NC(=O)[C@@H](NC(=O)[C@H](Cc1ccccc1)NC(=O)[C@H](CC(=O)O)NC(=O)[C@H](CCC(N)=O)NC(=O)[C@H](C)NC(=O)[C@H](CCCNC(=N)N)NC(=O)[C@H](CCCCNC(=O)COCCOCCNC(=O)COCCOCCNC(=O)CC[C@H](NC(=O)CCCCCCCCCCCCCCCCC(=O)O)C(=O)O)NC(=O)[C@@H](NC(=O)[C@H](CC(=O)O)NC(=O)[C@H](CC(C)C)NC(=O)[C@](C)(Cc1ccccc1)NC(=O)[C@H](CCCCN)NC(=O)[C@H](CO)NC(=O)[C@@H](NC(=O)[C@H](CC(=O)O)NC(=O)[C@H](CO)NC(=O)[C@@H](NC(=O)[C@H](Cc1ccccc1)NC(=O)[C@@H](NC(=O)CNC(=O)[C@H](CCC(N)=O)NC(=O)C(C)(C)NC(=O)[C@@H](N)Cc1c[nH]cn1)[C@@H](C)O)[C@@H](C)O)C(C)C)[C@@H](C)O)C(C)C)C(=O)N[C@@H](CC(C)C)C(=O)NC(C)(C)C(=O)N[C@H](C(=O)O)[C@@H](C)O [Peptide 35] (H-H[Aib]QGTFTSDVSK[αMeF]LDTK([AEEA-AEEA-γGlu-C18 diacid])RAQDFVQWLL[Aib]T-OH; N-terminus assumed)	0.0837	7.9	0.335
CC(C)C[C@H](NC(=O)[C@H](Cc1c[nH]c2ccccc12)NC(=O)[C@H](CCC(N)=O)NC(=O)[C@@H](NC(=O)[C@H](Cc1ccccc1)NC(=O)[C@H](CC(=O)O)NC(=O)[C@H](CCCNC(=N)N)NC(=O)[C@H](C)NC(=O)[C@H](CCCNC(=N)N)NC(=O)[C@H](CCCCNC(=O)COCCOCCNC(=O)COCCOCCNC(=O)CC[C@H](NC(=O)CCCCCCCCCCCCCCCCC(=O)O)C(=O)O)NC(=O)[C@H](CO)NC(=O)[C@H](CC(=O)O)NC(=O)[C@H](CC(C)C)NC(=O)[C@](C)(Cc1ccccc1)NC(=O)[C@H](CCCCN)NC(=O)[C@H](CO)NC(=O)[C@@H](NC(=O)[C@H](CC(=O)O)NC(=O)[C@H](CO)NC(=O)[C@@H](NC(=O)[C@H](Cc1ccccc1)NC(=O)[C@@H](NC(=O)CNC(=O)[C@H](CCC(N)=O)NC(=O)C(C)(C)NC(=O)[C@@H](N)Cc1c[nH]cn1)[C@@H](C)O)[C@@H](C)O)C(C)C)C(C)C)C(=O)N[C@@H](CC(C)C)C(=O)NC(C)(C)C(=O)N[C@H](C(=O)O)[C@@H](C)O [Peptide 36] (H-H[Aib]QGTFTSDVSK[αMeF]LDSK([AEEA-AEEA-γGlu-C18 diacid])RARDFVQWLL[Aib]T-OH; N-terminus assumed)	0.0431	12.8	0.278
CC(C)C[C@H](NC(=O)[C@H](Cc1c[nH]c2ccccc12)NC(=O)[C@H](CCC(N)=O)NC(=O)[C@@H](NC(=O)[C@H](Cc1ccccc1)NC(=O)[C@H](CC(=O)O)NC(=O)[C@H](CCC(=O)O)NC(=O)[C@H](C)NC(=O)[C@H](CCCNC(=N)N)NC(=O)[C@H](CCCCNC(=O)COCCOCCNC(=O)COCCOCCNC(=O)CC[C@H](NC(=O)CCCCCCCCCCCCCCCCC(=O)O)C(=O)O)NC(=O)[C@H](CO)NC(=O)[C@H](CC(=O)O)NC(=O)[C@H](CC(C)C)NC(=O)[C@](C)(Cc1ccccc1)NC(=O)[C@H](CCCCN)NC(=O)[C@H](CO)NC(=O)[C@@H](NC(=O)[C@H](CC(=O)O)NC(=O)[C@H](CO)NC(=O)[C@@H](NC(=O)[C@H](Cc1ccccc1)NC(=O)[C@@H](NC(=O)CNC(=O)[C@H](CCC(N)=O)NC(=O)C(C)(C)NC(=O)[C@@H](N)Cc1c[nH]cn1)[C@@H](C)O)[C@@H](C)O)C(C)C)C(C)C)C(=O)N[C@@H](CC(C)C)C(=O)NC(C)(C)C(=O)N[C@H](C(=O)O)[C@@H](C)O [Peptide 37] (H-H[Aib]QGTFTSDVSK[αMeF]LDSK([AEEA-AEEA-γGlu-C18 diacid])RAEDFVQWLL[Aib]T-OH)	0.0686	79.2	2.75
CC(C)C[C@H](NC(=O)[C@H](Cc1c[nH]c2ccccc12)NC(=O)[C@H](CCC(=O)O)NC(=O)[C@@H](NC(=O)[C@H](Cc1ccccc1)NC(=O)[C@H](CC(=O)O)NC(=O)[C@H](CCC(N)=O)NC(=O)[C@H](C)NC(=O)[C@H](CCCNC(=N)N)NC(=O)[C@H](CCCCNC(=O)COCCOCCNC(=O)COCCOCCNC(=O)CC[C@H](NC(=O)CCCCCCCCCCCCCCCCC(=O)O)C(=O)O)NC(=O)[C@H](CO)NC(=O)[C@H](CC(=O)O)NC(=O)[C@H](CC(C)C)NC(=O)[C@](C)(Cc1ccccc1)NC(=O)[C@H](CCCCN)NC(=O)[C@H](CO)NC(=O)[C@@H](NC(=O)[C@H](CC(=O)O)NC(=O)[C@H](CO)NC(=O)[C@@H](NC(=O)[C@H](Cc1ccccc1)NC(=O)[C@@H](NC(=O)CNC(=O)[C@H](CCC(N)=O)NC(=O)C(C)(C)NC(=O)[C@@H](N)Cc1c[nH]cn1)[C@@H](C)O)[C@@H](C)O)C(C)C)C(C)C)C(=O)N[C@@H](CC(C)C)C(=O)NC(C)(C)C(=O)N[C@H](C(=O)O)[C@@H](C)O [Peptide 38] (H-H[Aib]QGTFTSDVSK[αMeF]LDSK([AEEA-AEEA-γGlu-C18 diacid])RAQDFVEWLL[Aib]T-OH; N-terminus assumed)	0.0756	11.6	0.441
CC(C)C[C@H](NC(=O)[C@H](Cc1c[nH]c2ccccc12)NC(=O)[C@H](CCCNC(=N)N)NC(=O)[C@@H](NC(=O)[C@H](Cc1ccccc1)NC(=O)[C@H](CC(=O)O)NC(=O)[C@H](CCC(N)=O)NC(=O)[C@H](C)NC(=O)[C@H](CCCNC(=N)N)NC(=O)[C@H](CCCCNC(=O)COCCOCCNC(=O)COCCOCCNC(=O)CC[C@H](NC(=O)CCCCCCCCCCCCCCCCC(=O)O)C(=O)O)NC(=O)[C@H](CO)NC(=O)[C@H](CC(=O)O)NC(=O)[C@H](CC(C)C)NC(=O)[C@](C)(Cc1ccccc1)NC(=O)[C@H](CCCCN)NC(=O)[C@H](CO)NC(=O)[C@@H](NC(=O)[C@H](CC(=O)O)NC(=O)[C@H](CO)NC(=O)[C@@H](NC(=O)[C@H](Cc1ccccc1)NC(=O)[C@@H](NC(=O)CNC(=O)[C@H](CCC(N)=O)NC(=O)C(C)(C)NC(=O)[C@@H](N)Cc1c[nH]cn1)[C@@H](C)O)[C@@H](C)O)C(C)C)C(C)C)C(=O)N[C@@H](CC(C)C)C(=O)NC(C)(C)C(=O)N[C@H](C(=O)N[C@@H](CCC(=O)O)C(=O)O)[C@@H](C)O [Peptide 39] (H-H[Aib]QGTFTSDVSK[αMeF]LDSK([AEEA-AEEA-γGlu-C18 diacid])RAQDFVRWLL[Aib]TE-OH; N-terminus assumed)	0.0761	5.0	0.194
CC(C)C[C@H](NC(=O)[C@H](Cc1c[nH]c2ccccc12)NC(=O)[C@H](CCC(N)=O)NC(=O)[C@@H](NC(=O)[C@H](Cc1ccccc1)NC(=O)[C@H](CC(=O)O)NC(=O)[C@H](CCC(N)=O)NC(=O)[C@H](C)NC(=O)[C@H](CCCNC(=N)N)NC(=O)[C@H](CCCCNC(=O)COCCOCCNC(=O)COCCOCCNC(=O)CC[C@H](NC(=O)CCCCCCCCCCCCCCCCC(=O)O)C(=O)O)NC(=O)[C@H](CO)NC(=O)[C@H](CC(=O)O)NC(=O)[C@H](CC(C)C)NC(=O)[C@](C)(Cc1ccccc1)NC(=O)[C@H](CCCCN)NC(=O)[C@H](CO)NC(=O)[C@@H](NC(=O)[C@H](CC(=O)O)NC(=O)[C@H](CO)NC(=O)[C@@H](NC(=O)[C@H](Cc1ccccc1)NC(=O)[C@@H](NC(=O)CNC(=O)[C@H](CCC(N)=O)NC(=O)C(C)(C)NC(=O)[C@@H](N)Cc1c[nH]cn1)[C@@H](C)O)[C@@H](C)O)C(C)C)C(C)C)C(=O)N[C@@H](CC(C)C)C(=O)NC(C)(C)C(=O)N[C@H](C(=O)O)[C@@H](C)O [Peptide 40] (H-H[Aib]QGTFTSDVSK[αMeF]LDSK([AEEA-AEEA-γGlu-C18 diacid])RAQDFVQWLL[Aib]T-OH; N-terminus assumed)	0.0299	8.2	0.123
